Assay results as given in patent US9096832B2, “Differentiation of human embryonic stem cells” (LifeScan, Inc., priority 2007, dated 2015).
Several values for one entry are separate records, joined by “and”; a condition that tells them apart may be missing. Equal values may be shown once.

Key:
Assay type in all cases: cell-based
[1] = test system: human embryonic stem cell line H9; test: Cytokine array (RayBiotech) of cell lysates and conditioned media, Activin A +/- Wnt3a (Table VII); set-up: Angiogenin / BDNF / BMP-4 / BMP-6 / CK beta 8-1 / Eotaxin-3 / Flt-3 Ligand / Fractalkine / GCP-2 / GDNF / GM-CSF / I-309 / IFN-gamma / IGFBP-1 / IGFBP-2 / IGFBP-4 / IL-10 / IL-13 / IL-15 / IL-1alpha / IL-1beta / IL-1ra / IL-3 / IL-5 / Leptin / MCP-1 / MIP-1-delta / NT-3 / RANTES / SCF / TGF-beta 1 / TNF-beta / Acrp30 / AgRP / AxI / bFGF: unit not given here; conditions: H9 day 5, samples 1,2
Method: At passage 54, cells were differentiated in the presence of 100 ng/mlActivinA+/−10 ng/mlWnt3a for 2 days in 0.5% FBS DMEM/F12. […]
Cell lysates were prepared from cells of each treatment group, with a mammalian cell lysis kit (Sigma-Aldrich,MO). Conditioned media from each treatment group was collected and concentrated. Cytokine array analysis was completed using Cytokine Array panels provided by RayBiotech, GA (http://www.raybiotech.com/). […] For each panel, positive and negative controls are also included.

[2] = test system: human embryonic stem cell line H9; test: Cells from […] differentiated on MEFs: role of Wnt-3a (real-time PCR, FACS)
Method: Cells from the human embryonic stem cell line H9 cultured on […]™ for at least five passages were seeded onto MEF feeders in ES media.
At day 3 and 5, the cultures were analyzed by real time PCR for SOX-17, SOX-7, Alpha-fetal protein (AFP), CXCR4, Brychyury (Bry), gooscecoid (GSC), HNF-3 beta, GATA4, hTERT and Oct4. AFP and SOX-7 are regarded as visceral endoderm markers while GATA4, HNF-3beta and SOX-17 represent definite endoderm markers and GSC, Bry, and CXCR4 represent markers of primitive streak. hTERT and Oct-4 are markers for self renewal and pluripotency respectively. FACS analysis was also performed at day 3 and 5.

[3] = test system: human embryonic stem cell line H9; test: Immunocytochemistry of definitive endoderm markers after activin A treatment; conditions: activin A for five days
Text: The level of expression of definitive endoderm markers was examined by PCR (FIG. 1), FACS (results summarized in Table II), and immunohistochemistry (FIG. 2).
Levels of expression for HNF-3beta, Sox-17, and GATA4 were low in untreated cells, approximately 10 to 20% of all cells.

For “Activin A: activin A (a member of the TGFβ superfamily), R&D Systems; 'w/o wnt' in Table VII = 100 ng/ml Activin A without Wnt3a”, which Acrp30 ([1]; Cell conditioned media) is on record?
Its Acrp30 is 1,797.52 and 1,319.88.

What about the AgRP ([1]; Cell conditioned media) of the same substance?
The AgRP was 378.17 and 195.90.

And the Amphiregulin ([1]; Cell conditioned media)?
Its Amphiregulin is 250.52 and 151.01.

And the Angiogenin ([1]; Cell conditioned media)?
The Angiogenin was 13,726.35 and 11,749.55.

What about the Angiopoietin-2 ([1]; Cell conditioned media) of the same substance?
Its Angiopoietin-2 is 655.82 and 632.60.

What about the AxI ([1]; Cell conditioned media) of the same substance?
Its AxI is 401.31 and 324.05.

And the BDNF ([1]; Cell conditioned media)?
Its BDNF is 689.22 and 563.39.

And the BMP-4 ([1]; Cell conditioned media)?
The BMP-4 was 583.40 and 541.83.

And the BMP-6 ([1]; Cell conditioned media)?
Its BMP-6 is 354.91 and 355.28.

And the “CK beta 8-1” value ([1]; Cell conditioned media)?
Its value is 17.79 and 25.31.

What about the CNTF ([1]; Cell conditioned media) of the same substance?
Its CNTF is 282.81 and 211.86.

What about the EGF ([1]; Cell conditioned media) of the same substance?
The EGF was 1,681.85 and 1,406.12.

And the Eotaxin ([1]; Cell conditioned media)?
The Eotaxin was 207.89 and 199.67.

What about the Eotaxin-2 ([1]; Cell conditioned media) of the same substance?
The Eotaxin-2 was 890.56 and 744.31.

And the Eotaxin-3 ([1]; Cell conditioned media)?
Its Eotaxin-3 is 975.77 and 665.56.

What about the FGF-7 ([1]; Cell conditioned media) of the same substance?
The FGF-7 was 449.49 and 352.47.

What about the “Flt-3 Ligand” value ([1]; Cell conditioned media) of the same substance?
The value was 315.58 and 277.47.

What about the Fractalkine ([1]; Cell conditioned media) of the same substance?
Its Fractalkine is 120.80 and 145.30.

What about the GCP-2 ([1]; Cell conditioned media) of the same substance?
Its GCP-2 is 203.21 and 166.86.

And the GDNF ([1]; Cell conditioned media)?
The GDNF was 176.99 and 194.98.

And the GM-CSF ([1]; Cell conditioned media)?
The GM-CSF was 777.25 and 722.75.

What about the IFN-gamma ([1]; Cell conditioned media) of the same substance?
The IFN-gamma was 283.74 and 559.64.

And the IGF-I ([1]; Cell conditioned media)?
Its IGF-I is 88.96 and 148.11.

And the IGFBP-1 ([1]; Cell conditioned media)?
Its IGFBP-1 is 33.71 and 24.37.

And the IGFBP-2 ([1]; Cell conditioned media)?
Its IGFBP-2 is 27,656.85 and 28,473.95.

What about the IGFBP-4 ([1]; Cell conditioned media) of the same substance?
Its IGFBP-4 is 10,091.09 and 6,029.45.

What about the IL-1alpha ([1]; Cell conditioned media) of the same substance?
The IL-1alpha was 10,155.70 and 5,842.90.

And the IL-1beta ([1]; Cell conditioned media)?
The IL-1beta was 117.99 and 75.93.

And the IL-1ra ([1]; Cell conditioned media)?
Its IL-1ra is 142.34 and 93.74.

What about the IL-2 ([1]; Cell conditioned media) of the same substance?
The IL-2 was 188.22 and 363.72.

And the IL-3 ([1]; Cell conditioned media)?
The IL-3 was 4,598.86 and 5,260.77.

And the IL-4 ([1]; Cell conditioned media)?
Its IL-4 is 357.72 and 239.04.

And the IL-6 ([1]; Cell conditioned media)?
The IL-6 was 7,377.28 and 9,527.88.

And the IL-7 ([1]; Cell conditioned media)?
The IL-7 was 456.98 and 430.27.

What about the IL-10 ([1]; Cell conditioned media) of the same substance?
The IL-10 was 722.93 and 564.32.

What about the IL-16 ([1]; Cell conditioned media) of the same substance?
Its IL-16 is 259.39 and 214.67.

What about the LIGHT ([1]; Cell conditioned media) of the same substance?
The LIGHT was 619.92 and 453.71.

What about the Leptin ([1]; Cell conditioned media) of the same substance?
The Leptin was 2,999.42 and 2,016.38.

And the M-CSF ([1]; Cell conditioned media)?
Its M-CSF is 529.09 and 269.04.

What about the MCP-1 ([1]; Cell conditioned media) of the same substance?
Its MCP-1 is 572.17 and 500.58.

And the MCP-4 ([1]; Cell conditioned media)?
Its MCP-4 is 123.61 and 61.87.

And the MIG ([1]; Cell conditioned media)?
Its MIG is 272.50 and 486.52.

What about the NAP-2 ([1]; Cell conditioned media) of the same substance?
Its NAP-2 is 97.39 and 110.61.

And the NT-3 ([1]; Cell conditioned media)?
The NT-3 was 97.39 and 171.55.

What about the PDGF-BB ([1]; Cell conditioned media) of the same substance?
Its PDGF-BB is 4,729.96 and 8,521.09.

What about the RANTES ([1]; Cell conditioned media) of the same substance?
Its RANTES is 393.31 and 347.78.

And the SCF ([1]; Cell conditioned media)?
The SCF was 691.09 and 487.46.

What about the “TGF-beta 1” value ([1]; Cell conditioned media) of the same substance?
Its value is 752.90 and 740.56.

What about the “TGF-beta 3” value ([1]; Cell conditioned media) of the same substance?
Its value is 111.44 and 115.30.

What about the TNF-beta ([1]; Cell conditioned media) of the same substance?
Its TNF-beta is 675.17 and 671.19.

What about the bFGF ([1]; Cell conditioned media) of the same substance?
The bFGF was 7,948.03 and 4,993.83.

And the Amphiregulin ([1]; Cell lysate)?
Its Amphiregulin is 17.50 and 15.44.

What about the AxI ([1]; Cell lysate) of the same substance?
Its AxI is 637.50 and 795.83.

And the BDNF ([1]; Cell lysate)?
Its BDNF is 167.50 and 167.82.

What about the BMP-4 ([1]; Cell lysate) of the same substance?
Its BMP-4 is 247.00 and 273.70.

And the “CK beta 8-1” value ([1]; Cell lysate)?
The value was 1.00 and 1.13.

What about the Eotaxin-2 ([1]; Cell lysate) of the same substance?
Its Eotaxin-2 is 262.00 and 336.77.

What about the Eotaxin-3 ([1]; Cell lysate) of the same substance?
Its Eotaxin-3 is 184.50 and 284.96.

And the FGF-6 ([1]; Cell lysate)?
Its FGF-6 is 629.00 and 379.57.

What about the GM-CSF ([1]; Cell lysate) of the same substance?
Its GM-CSF is 433.00 and 636.37.

What about the I-309 ([1]; Cell lysate) of the same substance?
The I-309 was 152.50 and 246.10.

And the IFN-gamma ([1]; Cell lysate)?
The IFN-gamma was 349.00 and 441.52.

And the IGFBP-2 ([1]; Cell lysate)?
The IGFBP-2 was 3,785.50 and 5,554.45.

What about the IGFBP-4 ([1]; Cell lysate) of the same substance?
The IGFBP-4 was 5,553.00 and 6,043.27.

What about the IL-1alpha ([1]; Cell lysate) of the same substance?
Its IL-1alpha is 1,236.00 and 1,216.99.

What about the IL-1beta ([1]; Cell lysate) of the same substance?
Its IL-1beta is 1.00 and 1.13.

And the IL-1ra ([1]; Cell lysate)?
The IL-1ra was 33.00 and 25.91.

And the IL-5 ([1]; Cell lysate)?
Its IL-5 is 400.50 and 555.84.

What about the IL-6 ([1]; Cell lysate) of the same substance?
The IL-6 was 828.50 and 516.98.

What about the IL-7 ([1]; Cell lysate) of the same substance?
Its IL-7 is 190.00 and 313.12.

And the IL-13 ([1]; Cell lysate)?
The IL-13 was 428.50 and 555.84.

And the IL-15 ([1]; Cell lysate)?
Its IL-15 is 599.50 and 808.13.

What about the Leptin ([1]; Cell lysate) of the same substance?
Its Leptin is 900.50 and 617.79.

And the MCP-1 ([1]; Cell lysate)?
Its MCP-1 is 242.50 and 282.71.

What about the MIG ([1]; Cell lysate) of the same substance?
The MIG was 291.00 and 226.39.

What about the MIP-1-delta ([1]; Cell lysate) of the same substance?
Its MIP-1-delta is 1.50 and 1.13.

What about the NT-3 ([1]; Cell lysate) of the same substance?
The NT-3 was 1.00 and 1.13.

What about the SCF ([1]; Cell lysate) of the same substance?
The SCF was 74.50 and 148.67.

And the “TGF-beta 1” value ([1]; Cell lysate)?
Its value is 362.00 and 230.33.

And the TNF-alpha ([1]; Cell lysate)?
The TNF-alpha was 431.00 and 579.49.

What about the TNF-beta ([1]; Cell lysate) of the same substance?
The TNF-beta was 241.00 and 342.40.

And the bFGF ([1]; Cell lysate)?
The bFGF was 59,820.50 and 54,057.29.

And the “CXCR4 positive cells (FACS)” value ([2]; day 3, high concentration of Activin A)?
The value was 32-42%.

And the “cells expressing CXCR4 (FACS)” value ([2]; day 5, high concentration of activin A)?
The value was 28-32%.

And the AFP expression ([2]; lower concentration of Activin A, regardless of Wnt3a)?
The AFP expression was “very high”.

What about the “cells positive for Sox17 and HNF-3beta (immunocytochemistry)” value [3] of the same substance?
Its value is 30-40%.

What about the “differentiated cells still Oct4 positive (immunocytochemistry)” value [3] of the same substance?
Its value is about 100%.
